In ChEMBL document CHEMBL5696442, “Discovery of type II inhibitors of TGFβ-activated kinase 1 (TAK1) and mitogen-activated protein kinase kinase kinase kinase 2 (MAP4K2)” (J Med Chem, 2015) one finds residual activity and inhibition data, which are given here for three molecules.

Active and inactive are the calls of the source. The rule behind the calls is not given here.

The target in test [1] is Calcium/calmodulin-dependent protein kinase type 1D (Homo sapiens) (UniProt Q8IU85). The experiment in a line: Inhibition of CAMK1D (unknown origin) at 1 uM by Ambit Kinomescan binding assay relative to control; values are per cent of control.
Calcium/calmodulin-dependent protein kinase type 1D (Homo sapiens), sequence (Q8IU85 whole entry, looked up): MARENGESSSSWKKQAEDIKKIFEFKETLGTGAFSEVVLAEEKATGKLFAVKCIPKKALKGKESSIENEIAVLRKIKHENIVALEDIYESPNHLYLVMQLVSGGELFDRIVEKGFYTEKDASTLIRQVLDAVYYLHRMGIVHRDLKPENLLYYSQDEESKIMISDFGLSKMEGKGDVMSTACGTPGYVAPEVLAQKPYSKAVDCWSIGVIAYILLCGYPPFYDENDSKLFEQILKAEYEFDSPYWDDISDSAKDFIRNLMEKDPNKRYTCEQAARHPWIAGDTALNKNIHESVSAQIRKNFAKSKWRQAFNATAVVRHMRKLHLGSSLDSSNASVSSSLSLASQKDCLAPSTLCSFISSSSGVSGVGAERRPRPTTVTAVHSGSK
The target of test [2] is Dual specificity tyrosine-phosphorylation-regulated kinase 1B (Homo sapiens) (UniProt Q9Y463). As to the kind of experiment: Inhibition of DYRK1B (unknown origin) at 1 uM by Ambit Kinomescan binding assay relative to control; values are per cent of control.
Dual specificity tyrosine-phosphorylation-regulated kinase 1B (Homo sapiens), sequence (Q9Y463 whole entry, looked up): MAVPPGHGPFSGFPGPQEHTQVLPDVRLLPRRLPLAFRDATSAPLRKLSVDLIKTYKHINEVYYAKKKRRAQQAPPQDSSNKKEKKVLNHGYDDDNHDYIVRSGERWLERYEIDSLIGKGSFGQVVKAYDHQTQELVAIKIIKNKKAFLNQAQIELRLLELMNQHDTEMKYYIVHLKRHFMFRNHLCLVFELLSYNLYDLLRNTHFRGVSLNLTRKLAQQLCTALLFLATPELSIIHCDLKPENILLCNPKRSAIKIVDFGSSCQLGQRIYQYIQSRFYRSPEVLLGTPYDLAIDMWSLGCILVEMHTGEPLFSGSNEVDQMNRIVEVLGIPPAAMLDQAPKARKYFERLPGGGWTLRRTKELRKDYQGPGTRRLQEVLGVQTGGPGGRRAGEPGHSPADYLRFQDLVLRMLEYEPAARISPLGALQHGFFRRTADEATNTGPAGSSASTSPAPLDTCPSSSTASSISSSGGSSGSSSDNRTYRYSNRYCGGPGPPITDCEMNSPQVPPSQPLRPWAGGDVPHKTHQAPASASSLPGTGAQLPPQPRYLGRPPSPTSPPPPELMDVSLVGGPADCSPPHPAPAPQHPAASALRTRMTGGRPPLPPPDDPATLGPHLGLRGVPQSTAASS
The test system of test [3] is Epidermal growth factor receptor (Homo sapiens), P00533 [T790M]. As to the kind of experiment: Inhibition of EGFR T790M mutant (unknown origin) at 1 uM by Ambit Kinomescan binding assay relative to control.
Test [4] deals with Phosphatidylinositol 3-kinase C2 domain-containing subunit gamma (Homo sapiens) (UniProt O75747). As to the kind of experiment: Inhibition of PIK3C2G (unknown origin) at 1 uM by Ambit Kinomescan binding assay relative to control; values are per cent of control.
Phosphatidylinositol 3-kinase C2 domain-containing subunit gamma (Homo sapiens), sequence (O75747 whole entry, the tested form may be a part): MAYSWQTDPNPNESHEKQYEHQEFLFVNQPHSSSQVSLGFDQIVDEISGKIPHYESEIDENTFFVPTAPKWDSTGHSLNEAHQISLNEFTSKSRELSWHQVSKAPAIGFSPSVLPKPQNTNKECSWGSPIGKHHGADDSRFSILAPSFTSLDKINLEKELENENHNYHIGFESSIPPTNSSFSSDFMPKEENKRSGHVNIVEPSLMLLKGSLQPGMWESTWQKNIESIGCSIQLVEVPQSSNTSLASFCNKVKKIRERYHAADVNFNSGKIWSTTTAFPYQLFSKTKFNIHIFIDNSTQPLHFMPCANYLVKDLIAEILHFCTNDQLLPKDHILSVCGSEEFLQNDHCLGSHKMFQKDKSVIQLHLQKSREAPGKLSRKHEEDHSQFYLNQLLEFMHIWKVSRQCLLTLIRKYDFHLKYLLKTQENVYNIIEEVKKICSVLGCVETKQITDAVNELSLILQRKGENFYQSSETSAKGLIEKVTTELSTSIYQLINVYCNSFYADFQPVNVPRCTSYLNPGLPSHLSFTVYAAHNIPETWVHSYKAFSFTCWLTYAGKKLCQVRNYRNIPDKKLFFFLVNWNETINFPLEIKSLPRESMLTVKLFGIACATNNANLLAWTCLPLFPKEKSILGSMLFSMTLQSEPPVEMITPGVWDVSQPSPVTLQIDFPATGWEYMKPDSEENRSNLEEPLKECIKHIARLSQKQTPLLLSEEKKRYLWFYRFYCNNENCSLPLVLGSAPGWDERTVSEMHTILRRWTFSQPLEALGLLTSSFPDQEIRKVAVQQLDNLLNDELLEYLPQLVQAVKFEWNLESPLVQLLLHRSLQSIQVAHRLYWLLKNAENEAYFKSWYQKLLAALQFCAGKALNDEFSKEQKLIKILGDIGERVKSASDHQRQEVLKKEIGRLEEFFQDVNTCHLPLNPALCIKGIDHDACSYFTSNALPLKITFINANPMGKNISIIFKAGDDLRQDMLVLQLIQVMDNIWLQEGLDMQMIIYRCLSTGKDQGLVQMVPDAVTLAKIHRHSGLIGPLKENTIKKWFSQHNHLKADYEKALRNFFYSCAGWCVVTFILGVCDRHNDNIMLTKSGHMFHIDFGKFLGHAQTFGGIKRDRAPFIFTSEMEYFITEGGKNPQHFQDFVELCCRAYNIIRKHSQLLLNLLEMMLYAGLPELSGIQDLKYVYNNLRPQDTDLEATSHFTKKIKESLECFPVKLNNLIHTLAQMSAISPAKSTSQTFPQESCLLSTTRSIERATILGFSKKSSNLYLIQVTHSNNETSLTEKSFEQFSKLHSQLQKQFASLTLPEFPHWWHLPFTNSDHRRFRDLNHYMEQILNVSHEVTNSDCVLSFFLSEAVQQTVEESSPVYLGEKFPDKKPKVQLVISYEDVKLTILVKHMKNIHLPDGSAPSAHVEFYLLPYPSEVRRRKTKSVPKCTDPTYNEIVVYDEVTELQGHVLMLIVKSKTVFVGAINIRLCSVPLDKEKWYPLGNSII
In test [5] the target is Serine/threonine-protein kinase DCLK1 (Homo sapiens) (UniProt O15075). As to the kind of experiment: Inhibition of DCAMKL1 (unknown origin) at 1 uM by Ambit Kinomescan binding assay relative to control.
The target in test [6] is Platelet-derived growth factor receptor beta (Homo sapiens) (UniProt P09619). As to the kind of experiment: Inhibition of PDGFRB (unknown origin) at 1 uM by Ambit Kinomescan binding assay relative to control.
The target in test [7] is T1, Phosphatidylinositol 5-phosphate 4-kinase type-2 gamma (Homo sapiens) (UniProt Q8TBX8).
T1 sequence (whole entry): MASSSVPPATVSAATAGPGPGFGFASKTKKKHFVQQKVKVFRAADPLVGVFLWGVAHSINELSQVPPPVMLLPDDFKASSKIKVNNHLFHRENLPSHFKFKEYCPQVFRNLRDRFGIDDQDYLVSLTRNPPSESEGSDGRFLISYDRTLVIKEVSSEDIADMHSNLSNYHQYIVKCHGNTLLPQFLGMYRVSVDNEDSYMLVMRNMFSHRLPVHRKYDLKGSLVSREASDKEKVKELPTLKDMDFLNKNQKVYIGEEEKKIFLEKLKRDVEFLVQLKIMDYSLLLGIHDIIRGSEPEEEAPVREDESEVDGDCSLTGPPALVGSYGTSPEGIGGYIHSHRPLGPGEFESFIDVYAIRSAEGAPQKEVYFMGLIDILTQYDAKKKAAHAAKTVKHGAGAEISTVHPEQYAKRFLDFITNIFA
The experiment in a line: Inhibition of PIP4K2C ATP labeling site harbouring VKELPTLKDMDFLNK in human A-375 cells at 5 uM by KiNativ Profiling analysis relative to control. It is filed as cell-based.

For test [8], the target named is Focal adhesion kinase 1 (Homo sapiens) (UniProt Q05397). The experiment in a line: Inhibition of FAK K1 labeling site in human Huh-7 cells at 1 uM by KiNativ Profiling analysis relative to control. Format: cell-based.
Test [9] deals with T1, Phosphatidylinositol 5-phosphate 4-kinase type-2 gamma (Homo sapiens). As to the kind of experiment: Inhibition of PIP5K2C ATP labeling site harbouring VKELPTLKDMDFLNK in human Huh-7 cells at 10 uM by KiNativ Profiling analysis relative to control. It is filed as cell-based.
The target in test [10] is T2, EKC/KEOPS complex subunit TP53RK (Homo sapiens) (UniProt Q96S44).
T2 sequence (whole entry): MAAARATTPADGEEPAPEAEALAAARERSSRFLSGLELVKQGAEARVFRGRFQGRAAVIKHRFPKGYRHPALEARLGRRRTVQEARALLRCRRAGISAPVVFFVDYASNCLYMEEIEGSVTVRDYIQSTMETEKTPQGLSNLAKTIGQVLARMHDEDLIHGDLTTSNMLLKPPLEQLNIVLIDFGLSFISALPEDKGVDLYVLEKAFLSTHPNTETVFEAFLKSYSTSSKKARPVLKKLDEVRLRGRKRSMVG
The experiment in a line: Inhibition of PRPK ATP Loop labeling site in human A-375 cells at 5 uM by KiNativ Profiling analysis relative to control. It is filed as cell-based.

The target of test [11] is T1, Phosphatidylinositol 5-phosphate 4-kinase type-2 gamma (Homo sapiens). As to the kind of experiment: Inhibition of PIP5K2C C2 labeling site in human Huh-7 cells at 10 uM by KiNativ Profiling analysis relative to control. Format: cell-based.
Test [12] deals with Ephrin type-A receptor 7 (Homo sapiens) (UniProt Q15375). As to the kind of experiment: Inhibition of EPHA7 (unknown origin) at 10 uM by Ambit Kinomescan binding assay.
Test [13] has as its target Mitogen-activated protein kinase kinase kinase 9 (Homo sapiens) (UniProt P80192). As to the kind of experiment: Inhibition of MLK1 (unknown origin) at 10 uM by Ambit Kinomescan binding assay.
The target in test [14] is MAP kinase-activated protein kinase 2 (Homo sapiens) (UniProt P49137). The experiment in a line: Inhibition of MAPKAPK2 (unknown origin) at 10 uM by Ambit Kinomescan binding assay.
MAP kinase-activated protein kinase 2 (Homo sapiens), sequence (P49137 whole entry, looked up): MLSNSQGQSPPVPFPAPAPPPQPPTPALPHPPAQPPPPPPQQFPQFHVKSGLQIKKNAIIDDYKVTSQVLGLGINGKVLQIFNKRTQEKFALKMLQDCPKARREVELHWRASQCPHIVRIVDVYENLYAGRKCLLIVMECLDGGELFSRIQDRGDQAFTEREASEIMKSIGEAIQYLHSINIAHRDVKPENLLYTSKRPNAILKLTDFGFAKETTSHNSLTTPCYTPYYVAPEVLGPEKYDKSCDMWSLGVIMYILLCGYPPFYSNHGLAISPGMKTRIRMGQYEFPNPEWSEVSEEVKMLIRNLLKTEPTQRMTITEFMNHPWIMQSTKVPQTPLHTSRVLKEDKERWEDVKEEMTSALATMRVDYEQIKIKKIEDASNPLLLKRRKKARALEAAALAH
The subject of test [15] is Tyrosine-protein kinase ABL1 (Homo sapiens), P00519 [E255K]. The experiment in a line: Inhibition of ABL1 E255K mutant (unknown origin) at 10 uM by Ambit Kinomescan binding assay relative to control.
In test [16] the target is Calcium/calmodulin-dependent protein kinase type IV (Homo sapiens) (UniProt Q16566). The experiment in a line: Inhibition of CAMK4 (unknown origin) at 10 uM by Ambit Kinomescan binding assay.
Test [17] concerns the target Receptor tyrosine-protein kinase erbB-2 (Homo sapiens) (UniProt P04626). The experiment in a line: Inhibition of ERBB2 (unknown origin) at 10 uM by Ambit Kinomescan binding assay.
Test [18] concerns the target Cyclin-dependent kinase 8 (Homo sapiens) (UniProt P49336). The experiment in a line: Inhibition of CDK8 Lys2 labeling site in human Huh-7 cell lysate at 1 uM by KiNativ Profiling analysis relative to control. It is filed as subcellular.
For test [19], the target named is Glycogen synthase kinase-3 alpha (Homo sapiens) (UniProt P49840). The experiment in a line: Inhibition of GSK3A Lys2 labeling site in human Huh-7 cell lysate at 1 uM by KiNativ Profiling analysis relative to control. Format: subcellular.
Test [20] addresses Serine/threonine-protein kinase MARK2 (Homo sapiens) (UniProt Q7KZI7). The experiment in a line: Inhibition of MARK2 Lys2 labeling site harbouring EVAIKIIDKTQLNPTSLQK in human Huh-7 cells at 1 uM by KiNativ Profiling analysis relative to control. Format: cell-based.
For test [21], the target named is Putative phosphatidylinositol 4-kinase alpha-like protein P2 (Homo sapiens) (UniProt A4QPH2). As to the kind of experiment: Inhibition of PI4KAP2 ATP labeling site in human Huh-7 cells at 1 uM by KiNativ Profiling analysis relative to control. It is filed as cell-based.
Putative phosphatidylinositol 4-kinase alpha-like protein P2 (Homo sapiens), sequence (A4QPH2 whole entry): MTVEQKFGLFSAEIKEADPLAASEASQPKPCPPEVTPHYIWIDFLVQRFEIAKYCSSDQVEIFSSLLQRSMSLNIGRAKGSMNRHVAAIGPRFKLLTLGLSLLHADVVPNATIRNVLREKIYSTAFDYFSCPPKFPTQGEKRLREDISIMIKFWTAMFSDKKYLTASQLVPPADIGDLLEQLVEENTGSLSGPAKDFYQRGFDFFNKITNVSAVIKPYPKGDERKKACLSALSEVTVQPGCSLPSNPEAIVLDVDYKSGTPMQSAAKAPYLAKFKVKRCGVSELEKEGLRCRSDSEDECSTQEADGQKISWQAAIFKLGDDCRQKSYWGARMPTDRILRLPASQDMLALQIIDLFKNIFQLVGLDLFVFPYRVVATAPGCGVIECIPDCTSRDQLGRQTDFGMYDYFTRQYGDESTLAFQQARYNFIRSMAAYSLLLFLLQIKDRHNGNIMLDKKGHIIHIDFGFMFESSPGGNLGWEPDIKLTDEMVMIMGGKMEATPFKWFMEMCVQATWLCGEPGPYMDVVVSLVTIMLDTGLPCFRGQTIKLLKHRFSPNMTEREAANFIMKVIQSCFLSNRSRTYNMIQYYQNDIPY
Test [22] concerns the target Calcium/calmodulin-dependent protein kinase type II subunit gamma (Homo sapiens) (UniProt Q13555). The experiment in a line: Inhibition of CaMK2g Lys1 labeling site harbouring KTSTQEYAAKIINTK in human Huh-7 cells at 1 uM by KiNativ Profiling analysis relative to control. Format: cell-based.
The target of test [23] is Cyclin-dependent kinase 17 (Homo sapiens) (UniProt Q00537). The experiment in a line: Inhibition of PCTAIRE2 Lys2 labeling site harbouring DLKPQNLLINEKGELKLADFGLAR in human Huh-7 cells at 1 uM by KiNativ Profiling analysis relative to control. It is filed as cell-based.
In test [24] the target is RAF proto-oncogene serine/threonine-protein kinase (Homo sapiens, UniProt P04049). As to the kind of experiment: Inhibition of RAF1 Lys2 labeling site in human Huh-7 cell lysate at 1 uM by KiNativ Profiling analysis relative to control. Format: subcellular.
RAF proto-oncogene serine/threonine-protein kinase, sequence (P04049 whole entry): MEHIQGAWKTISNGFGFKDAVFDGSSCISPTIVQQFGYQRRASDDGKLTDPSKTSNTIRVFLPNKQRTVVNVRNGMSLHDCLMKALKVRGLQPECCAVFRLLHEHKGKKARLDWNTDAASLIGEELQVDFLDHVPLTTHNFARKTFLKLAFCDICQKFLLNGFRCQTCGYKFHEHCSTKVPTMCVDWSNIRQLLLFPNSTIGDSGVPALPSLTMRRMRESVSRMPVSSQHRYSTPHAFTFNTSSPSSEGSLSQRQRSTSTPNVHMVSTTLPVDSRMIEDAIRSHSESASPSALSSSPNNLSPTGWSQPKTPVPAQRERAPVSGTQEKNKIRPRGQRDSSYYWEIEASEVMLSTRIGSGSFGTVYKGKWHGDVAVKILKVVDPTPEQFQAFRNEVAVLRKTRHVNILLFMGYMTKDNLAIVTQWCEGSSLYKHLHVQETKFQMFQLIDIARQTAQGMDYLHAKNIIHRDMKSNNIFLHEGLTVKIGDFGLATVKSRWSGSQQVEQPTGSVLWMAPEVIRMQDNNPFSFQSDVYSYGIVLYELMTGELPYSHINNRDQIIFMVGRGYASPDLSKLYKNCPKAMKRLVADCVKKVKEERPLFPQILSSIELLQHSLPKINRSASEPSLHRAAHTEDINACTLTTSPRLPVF

For orientation: residual activity means the share of the control activity or signal that is left under treatment. Broadly, the inhibition is the change of the read-out against control, counted positive when it falls.

Serine/threonine-protein kinase MARK2 (Homo sapiens), sequence (Q7KZI7 whole entry): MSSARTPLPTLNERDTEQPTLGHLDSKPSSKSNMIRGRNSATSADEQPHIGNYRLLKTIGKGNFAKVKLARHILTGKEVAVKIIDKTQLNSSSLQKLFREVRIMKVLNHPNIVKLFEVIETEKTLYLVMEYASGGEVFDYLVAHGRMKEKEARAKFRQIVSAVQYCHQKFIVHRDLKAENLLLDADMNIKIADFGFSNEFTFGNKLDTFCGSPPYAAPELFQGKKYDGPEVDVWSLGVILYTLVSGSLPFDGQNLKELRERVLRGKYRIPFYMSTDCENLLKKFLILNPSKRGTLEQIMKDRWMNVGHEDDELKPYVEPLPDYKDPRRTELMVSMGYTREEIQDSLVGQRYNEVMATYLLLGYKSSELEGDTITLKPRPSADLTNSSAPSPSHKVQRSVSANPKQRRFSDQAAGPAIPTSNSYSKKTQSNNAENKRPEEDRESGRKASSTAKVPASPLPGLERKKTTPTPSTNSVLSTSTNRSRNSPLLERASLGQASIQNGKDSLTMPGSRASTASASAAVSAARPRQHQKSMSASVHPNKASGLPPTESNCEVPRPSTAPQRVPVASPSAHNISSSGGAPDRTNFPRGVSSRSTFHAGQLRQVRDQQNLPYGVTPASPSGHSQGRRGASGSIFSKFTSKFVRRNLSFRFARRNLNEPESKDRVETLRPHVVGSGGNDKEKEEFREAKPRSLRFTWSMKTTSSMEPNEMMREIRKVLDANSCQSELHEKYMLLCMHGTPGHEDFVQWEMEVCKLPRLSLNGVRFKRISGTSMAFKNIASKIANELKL

`CCN1CCN(Cc2ccc(NC(=O)c3ccc(C)c(/C=C/c4cnc5[nH]ccc5c4OC)c3)cc2C(F)(F)F)CC1`: the residual activity in test [1] came out at 100%; in test [2] it was 73%; in test [4], 100%. Further, the inhibition in test [3] was determined as 68%; in test [5], 100%; in test [6], 0.1%; in [7], 8.5%.
As for `CCN1CCN(Cc2ccc(NC(=O)c3ccc(C)c(Oc4ccnc5[nH]ccc45)c3)cc2C(F)(F)F)CC1`, the inhibition stood at 32% in test [8]; 11.6% in test [9]; 8% in [10]; 2.3% in test [11]; 1.2% in test [15]. In addition, the inhibition entry in test [12], in [13], in test [14], in test [16] and in test [17] was “inactive” each time.
Consider `CNc1cc(Oc2cc(C(=O)Nc3cc(N4CCN(C)CC4)cc(C(F)(F)F)c3)ccc2C)ncn1`, for which the inhibition in test [18] is -8.6%; in test [19] it was -5.8%; in [20], 11.3%; in [21], 29.8%; in test [22], 24.3%; in test [23], -9.1%. Besides, in test [24], the inhibition was 23.2%.
